Experimental findings from US20260097111A1, “ETHER LIPIDS FOR HYPERACTIVATION OF MAMMALIAN DENDRITIC CELLS” (priority 2022, published 2026) are described below.

Molecules are shown by their SMILES.

The test system of the assay is human moDCs and autologous memory CD4+ T cells. Description: moDC and memory CD4+ T cell coculture, cytokine secretion and viability. The conditions noted are these: for IL-1β: MCC950 10 μM or anti-IL-1β 10 μg/mL added to R848+DGP where named, FIG. 36A. It counts as cell-based. The protocol:
Monocyte Isolation, Storage, and Differentiation into moDC.
Memory CD4+ T Cell Isolation. The CD14− fraction of the leukapheresis product was collected and used for further isolation of memory CD4+ T cells. First, approximately 5×10^9 total nucleated cells or less of the blood product were pelleted at 200×g for 10 min. The cells were resuspended in two 50 mL conical tubes each containing 25 mL in volume. Cells were then incubated with microbeads targeting red blood cells and granulocytes at 4° C. for 15 min. Cells were loaded on equilibrated MultiMACS columns using the “Deplete” program. Columns were washed twice with separation buffer and the flow-through of peripheral blood mononuclear cells (PBMCs) were collected and counted. The Memory CD4+ T Cell Isolation Kit from Miltenyi was then used to isolate memory CD4+ T cells from the PBMCs. After following the manufacturer's protocol for antibody and microbead incubations, cells were loaded onto equilibrated MultiMACS columns using the “Deplete” program. After 2 column washes using separation buffer, the negative fraction was collected and counted. An aliquot was stained to confirm the purity of the memory CD4 T cell population. […] Vials were placed in CoolCell freezing containers and placed in a −80° C. freezer for no longer than 1 week. Frozen cells were transferred for long-term storage to the vapor phase of a liquid nitrogen freezer until use.
Treatments of Cells For Analysis of Cytokine Secretion. Human moDCs were plated at 5×10^4 cells/well in 96-well U-bottom tissue culture plates in R10++ media by adding 50 μL of cells per well. To each well, 50 μL of memory CD4 T cells at 2.5×10^6 cells/mL was added. For control conditions where only moDC or only CD4 T cells were plated, the missing cells were replaced with an equivalent volume of R10++ media.
Lyophilized R848 stocks were prepared as described above and frozen at −80° C. for storage. An aliquot of frozen R848 was thawed and further diluted to 22.8 μM in R10++ (8 μg/mL R848). A portion of diluted R848 was combined with MCC950 to reach a concentration of 80 μM MCC950. Another portion of diluted R848 was combined with anti-IL-1β blocking antibody to reach a concentration of 80 μg/mL anti-IL-1β. Cell cultures received 25 μL of these mixes depending on desired treatment. For wells not receiving R848 treatment, an equivalent volume of R10++ media was added to wells. For these three chemicals, final concentrations in the wells were 2.85 μM R848, 10 μM MCC950, and 10 μg/mL anti-IL-1β.
A4.44% solution of KP407 dissolved in sterile, distilled water was prepared at a temperature of 4° C. DGP from powder was prepared by adding KP407 solution to lipid. […] Sterile 10×PBS was added to the solution resulting in a 1×PBS concentration. […]

As for `CCCCCCCCCCCCCCCCCCCCCCOC[C@@H](O)COP(=O)(O)O` [Compound 2, 1-docosyl-sn-glycerol-3-phosphate], the “production of IL-4, IL5, and IL-13” value (coculture, 2 days, FIG. 38A-C) was “not elevated compared to unstimulated conditions”. The IL-1β entry (coculture, 2 days) is “minimal IL-1β was detected”.
Take `CC(C)(O)c1coc(S(=O)(=O)NC(=O)Nc2c3c(cc4c2CCC4)CCC3)c1` [MCC950, reference compound]: the IFNγ result (coculture with anti-CD3, 2 days, MCC950 or anti-IL-1β added to R848+DGP where named, FIG. 37A) was “IFNγ production was significantly reduced”. Moreover, the IL-1β result (coculture, 2 days) was “IL-1β was significantly reduced”.
